Measured values from patent US6284468A, “Composition and methods for determining the activity of DNA-binding proteins and of initiation of trascription” (Dnab Diagnostics, Inc., priority 2000, dated 2001).

Legend:
[1] = target: T1, Escherichia coli RNA polymerase (Escherichia coli, UniProt P0A8V2); assay: Inhibition of initiation of transcription (de-protection of BseRI site of plasmid pDNAB-tac, ethidium bromide fluorescence); type: biochemical
T1 construct: purchased Pharmacia, Uppsala, Sweden
Method: In order to measure the initiation of transcription RNA polymerase was added to 0.5 μg of pDNAB-tac plasmid following the same procedure described above for the measurement of DNA-binding activity. The 4 ribonucleotide triphosphates (ATP, CTP, GTP and UTP) were then added to the reaction mixture followed by BseRI and the amount of CCC DNA left was measured after 20 minutes using ethidium bromide fluorescence as in Example 1. In the presence of the 4 ribonucleotide triphosphates the RNA polymerase starts polymerizing an RNA molecule and it moves away from the promoter sequence, thereby de-protecting the BseRI cleavage site. Cleavage at this site can take place then.
In order to measure the inhibition of the initiation of transcription, the effect of various concentrations of rifampicin on the de-protection of the BseRI site was measured. […] After 5 minutes of incubation, rifampicin and BseRI were added and the amount of uncleaved plasmid was measured after 20 minutes of incubation at 37° C. The 4 ribonucleotide triphosphates were then added and the amount of uncleaved plasmid was measured again after 20 more minutes of incubation at 37° C. […]
The relative effects of rifampicin on transcription was quantitated using the formula [formula] […]

[2] = target: T1, Escherichia coli RNA polymerase; assay: Binding of RNA polymerase to the promoter sequence (protection of pDNAB-tac from BseRI cleavage, before addition of ribonucleotide triphosphates); conditions: various concentrations of rifampicin, FIG. 14
Method: The following experiment was conducted to measure the DNA-binding activity of RNA polymerase to its cognate nucleotide recognition sequence. The incubation buffer contained 50 mM tris HCI (pH 8), 5 mM MgCl2, 100 mM potassium glutamate, and 3, μg of pDNABtac DNA in 60 μL final volume. One to 9 units of RNA polymerase (Boehringer-Mannheim, Mannheim, Germany) were added and, after preincubation at 37° C. for 5 minutes, the reaction was cooled to 31° C.
In order to measure the inhibition of the initiation of transcription, the effect of various concentrations of rifampicin on the de-protection of the BseRI site was measured. Rifampicin is an antibiotic used in the therapy of bacterial infections (e.g. tuberculosis) and it specifically targets bacterial RNA polymerase, by inhibiting its transcription activity. […] After 5 minutes of incubation, rifampicin and BseRI were added and the amount of uncleaved plasmid was measured after 20 minutes of incubation at 37° C. The 4 ribonucleotide triphosphates were then added and the amount of uncleaved plasmid was measured again after 20 more minutes of incubation at 37° C.
The white bars represent the fluorescence units (i.e. the amount of uncleaved plasmid) before the addition of the 4 ribonucleoside triphosphates, while the hatched bars represent the fluorescence units left after addition of the 4 ribonucleotide triphosphates.

## CO[C@H]1/C=C/O[C@@]2(C)Oc3c(C)c(O)c4c(O)c(c(/C=N/N5CCN(C)CC5)c(O)c4c3C2=O)NC(=O)/C(C)=C\C=C\[C@H](C)[C@H](O)[C@@H](C)[C@@H](O)[C@@H](C)[C@H](OC(C)=O)[C@@H]1C [rifampicin]
[1]; Michaelis-Menten fit of % inhibition, rifampicin 0.2 μM to 3.2 μM, plasmid pDNAB-tac, 37° C., read-out: apparent Ki of rifampicin (inhibition of initiation of transcription activity)
  Ki: 2.8 µM
[1]; various concentrations of rifampicin, with the 4 ribonucleotide triphosphates, FIG. 14
  inhibition of the transcription initiation activity: dose-dependent inhibition
[2]
  inhibition of the binding of RNA polymerase to the promoter sequence: not of the binding of RNA polymerase to the promoter sequence
